Experiments:
[1] = target: T1, OXA-1 β-lactamase (Class D oxacillinase) (Escherichia coli, UniProt P13661); assay: β-Lactamase inhibition, OXA-1; type: biochemical; settings: nitrocefin 100 μM, 486 nm; 15 min preincubation at 37° C., PBS pH 7.4
T1 construct: made in house; host or cells: E. coli BL21(DE3)
Procedure: (§1) For SHV-5, Kpc-2, p99AmpC and OXA-1 β-lactamases, E. coli BL21(DE3) bacterial cells carrying expression plasmids (expressed as native untagged proteins) for the individual β-lactamases were grown in 1 L of Superbroth (Teknova Inc. Hollister, Calif.) supplemented with 100 μg/ml kanamycin selection and 1×5052 (0.5% glycerol, 0.05% glucose and 0.2% α-lactose) at 35° C. for 18-20 hours. Cells were harvested by centrifugation (4,000×g, 4° C., 20 min), resuspended in 50 ml of 10 mM HEPES pH 7.5 ( 1/20 of the initial volume). The cells were lysed by sonication (5 pulses of 45 seconds) at 45 W on ice. The lysates were clarified by centrifugation at 10,000×g for 40 minutes at 4° C. Samples were diluted 5-fold in 50 mM sodium acetate pH 5.0, stored overnight at 4° C., after which they were centrifuged at 10,000×g for 30 minutes to clarify, and filtered through 0.45 μm filters. The samples were loaded onto a 5 ml Capto S sepharose cation exchange column (GE Healthcare) pre-equilibrated with 50 mM sodium acetate pH 5.0. The column was washed with 5 column volumes of 50 mM sodium acetate pH 5.0 to wash out unbound protein and a linear gradient of NaCl (0 to 500 mM) was used to elute the protein (over 16 CV) from the column. Fractions were assayed for β-lactamase activity using Centa (Calbiochem, Gibbstown, N.J.) or Nitrocefin (EMD Millipore chemicals, Darmstadt, Germany) as a reporter β-lactamase substrate for activity in the isolated fractions. Active fractions were pooled, concentrated and further purified by gel filtration chromatography on a Superdex 75 prep grade gel filtration column (GE Healthcare, Piscataway, N.J.) pre-equilibrated in 50 mM Hepes pH 7.5, 150 mM NaCl. Active fractions were pooled concentrated, quantitated by BCA protein determination (Thermo Scientific, Rockford, Ill.), dialyzed into PBS and frozen at −80° C. in 20% glycerol until use.
(§2) An equal volume of diluted enzyme stock was added, and the plates were incubated at 37° C. for 15 min. Nitrocefin was used as substrate for p99 AmpC, VIM-2 and OXA-1 and dispensed into each well at a final concentration of 100 μM. Absorbance at 486 nm was immediately monitored for 10 min using a Biotek Powerwave XS2 microplate spectrophotometer using the GEN5 software package (Biotek Instruments, Winooski Vt.). In an analogous fashion, imipenem was used as substrate for Kpc-2 and Cefotaxime was used for SHV-5, while changes in absorbance upon hydrolysis of the β-lactam ring were monitored at 300 nm and 260 nm respectively in UV-transparent 96-well microtiter assay plates. Maximum rates of hydrolysis were compared to those in control wells (without inhibitors), and percentages of enzyme inhibition were calculated for each concentration of inhibitor. The concentration of inhibitor needed to reduce the initial rate of hydrolysis of substrate by 50% (IC50) was calculated as the residual activity of β-lactamase at 486 nm using GraFit version 7 kinetics software package (Erithacus Software, Surrey, UK).
(§3) Using the methodology described above, examples of the current invention were evaluated for their ability to inhibit β-lactamase enzymes from all four Ambler classifications (A through D). […] NT=Not tested.

[2] = target: T2, KPC-2 β-lactamase (Class A carbapenemase) (Klebsiella pneumoniae, UniProt Q9F663); assay: β-Lactamase inhibition, KPC-2; type: biochemical; settings: imipenem substrate, 300 nm; 15 min preincubation at 37° C., PBS pH 7.4
T2 construct: made in house; host or cells: E. coli BL21(DE3)
T2 sequence (Q9F663 25-293, looked up): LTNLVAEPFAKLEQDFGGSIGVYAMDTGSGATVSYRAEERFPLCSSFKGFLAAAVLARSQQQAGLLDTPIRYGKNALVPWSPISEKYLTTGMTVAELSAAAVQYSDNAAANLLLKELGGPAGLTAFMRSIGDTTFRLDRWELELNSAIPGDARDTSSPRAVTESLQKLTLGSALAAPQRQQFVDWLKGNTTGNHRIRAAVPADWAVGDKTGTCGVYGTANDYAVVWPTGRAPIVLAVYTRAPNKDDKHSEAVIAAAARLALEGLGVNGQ
Procedure: as §1, §2, §3

[3] = tested on: K. pneumoniae A-1797 expressing KPC-2 and VIM-4; assay: Broth microdilution MIC, K. pneumoniae A-1797 KPC-2/VIM-4; type: cell-based; settings: fixed 4 μg/mL meropenem; CAMHB, 16-20 hours at 37° C.
Text: (§4) To determine the ability of test compounds to potentiate the inhibition of the growth of bacterial strains that produce beta-lactamase enzymes, classic cell based broth microdilution MIC assays were employed. Six bacteria strains producing beta-lactamase enzymes were used: E. coli expressing the Class A Extended Spectrum Beta-Lactamase (ESBL) CTX-M-15, E. cloacae expressing the Class C P99, K. pneumoniae expressing the Class A carbapenemase KPC-3, P. aeruginosa expressing the Class B carbapenemase VIM-2, K. pneumoniae expressing the class A carbapenemase KPC-2 and the class B carbapenemase VIM-4, and S. aureus producing the Class A penicillinase PC-1. The assay was conducted in Cation Adjusted Mueller Hinton Broth (CAMHB, BD #212322, BD Diagnostic Systems, Sparks, Md.). Bacteria strains were grown for 3-5 hours in CAMBH broth. Test compounds (Examples 1-30) were added to a microtiter plate in 2-fold serial dilutions in CAMHB in a final concentration range of 32 μg/mL to 0.25 μg/ml. An overlay of CAMHB containing a Beta-lactam was added to the compounds at a final static concentration of 4 μg/ml. […] In addition to the titration of test compounds the MICs of a panel of control beta-lactams is also tested to ensure the strains are behaving consistently from test to test. Once the test compound and antibiotics are added the plates can be inoculated according to CLSI broth microdilution method. After inoculation the plates are incubated for 16-20 hours at 37° C. then the Minimal Inhibitory Concentration (MIC) of the test compound is determined visually.
(§5) Using the methodology described above, examples of the current invention were evaluated for their ability to inhibit the growth of β-lactamase-producing bacteria in the presence of a β-lactam antibiotic.
(§6) Using the methodology described above in EXAMPLE III, exemplary compounds for Formula I or Formula Ia were evaluated for their ability to inhibit the growth of β-lactamase producing bacteria in the presence of a β-lactam antibiotic.

[4] = target: T3, SHV-5 β-lactamase (Class A ESBL) (Klebsiella pneumoniae, UniProt P0A3M1); assay: β-Lactamase inhibition, SHV-5; type: biochemical
T3 construct: made in house; host or cells: E. coli BL21(DE3)
T3 sequence (P0A3M1 22-286): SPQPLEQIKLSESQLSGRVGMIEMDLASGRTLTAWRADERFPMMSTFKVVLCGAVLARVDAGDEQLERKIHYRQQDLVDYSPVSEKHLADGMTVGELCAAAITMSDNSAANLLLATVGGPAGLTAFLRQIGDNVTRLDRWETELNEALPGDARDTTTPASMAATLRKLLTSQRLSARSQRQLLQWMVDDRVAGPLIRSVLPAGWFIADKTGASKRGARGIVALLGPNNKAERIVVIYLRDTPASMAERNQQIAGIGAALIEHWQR
Procedure: as §1, §2, §3

[5] = tested on: S. aureus MSSA-7 producing penicillinase PC-1; assay: Broth microdilution MIC, S. aureus MSSA-7 PC-1; type: cell-based; settings: fixed 4 μg/mL piperacillin; CAMHB, 16-20 hours at 37° C.
Text: as §4, §5, §6

[6] = tested on: K. pneumoniae 156319 expressing KPC-3; assay: Broth microdilution MIC, K. pneumoniae 156319 KPC-3; type: cell-based; settings: fixed 4 μg/mL meropenem; CAMHB, 16-20 hours at 37° C.
Text: as §4, §5, §6

[7] = tested on: E. coli ESBL4 expressing CTX-M-15; assay: Broth microdilution MIC, E. coli ESBL4 CTX-M-15; type: cell-based; settings: fixed 4 μg/mL ceftazidime; CAMHB, 16-20 hours at 37° C.
Text: as §4, §5, §6

[8] = target: T4, p99 AmpC β-lactamase (Class C) (Enterobacter cloacae, UniProt P05364); assay: β-Lactamase inhibition, p99 AmpC; type: biochemical
T4 construct: made in house; host or cells: E. coli BL21(DE3)
T4 sequence (P05364 21-381): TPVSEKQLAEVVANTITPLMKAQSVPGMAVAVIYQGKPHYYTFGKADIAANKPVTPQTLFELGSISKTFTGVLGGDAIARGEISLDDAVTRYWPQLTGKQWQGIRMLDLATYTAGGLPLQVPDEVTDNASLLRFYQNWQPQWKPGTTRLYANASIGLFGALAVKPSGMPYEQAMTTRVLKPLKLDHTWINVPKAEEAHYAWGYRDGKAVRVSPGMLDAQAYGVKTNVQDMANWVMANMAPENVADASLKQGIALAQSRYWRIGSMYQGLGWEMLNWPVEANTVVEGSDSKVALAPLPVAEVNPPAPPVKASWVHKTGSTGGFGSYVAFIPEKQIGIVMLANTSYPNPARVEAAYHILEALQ
Procedure: as §1, §2, §3

[9] = tested on: P. aeruginosa Ps296 expressing VIM-2; assay: Broth microdilution MIC, P. aeruginosa Ps296 VIM-2; type: cell-based; settings: fixed 4 μg/mL meropenem; CAMHB, 16-20 hours at 37° C.
Text: as §4, §5, §6

[10] = target: T5, VIM-2 metallo-β-lactamase (Class B) (Pseudomonas aeruginosa, UniProt Q9K2N0); assay: β-Lactamase inhibition, VIM-2; type: biochemical; settings: nitrocefin 100 μM, 486 nm; 15 min preincubation at 37° C., PBS pH 7.4
T5 construct: made in house; host or cells: E. coli BL21(DE3)
Procedure: For Vim-2 metallo β-lactamase, the procedure was identical with the following exceptions, first the protein was not pH adjusted to pH 5 with 50 mM sodium acetate, second, the chromatography step was changed to a 5 ml Q sepharose anion exchange column pre-equilibrated with 50 mM Hepes pH 7.5, and elution of the protein was achieved by a linear gradient of NaCl (0-600 mM). Finally, the VIM-2 purification required a second run (3rd step) on the Q sepharose anion exchange column to achieve acceptable purity (>90%).
as §2, §3

[11] = tested on: E. cloacae 144200 expressing Class C P99 AmpC; assay: Broth microdilution MIC, E. cloacae 144200 p99 AmpC; type: cell-based; settings: fixed 4 μg/mL ceftazidime; CAMHB, 16-20 hours at 37° C.
Text: as §4, §5, §6

T1 sequence (P13661 26-276): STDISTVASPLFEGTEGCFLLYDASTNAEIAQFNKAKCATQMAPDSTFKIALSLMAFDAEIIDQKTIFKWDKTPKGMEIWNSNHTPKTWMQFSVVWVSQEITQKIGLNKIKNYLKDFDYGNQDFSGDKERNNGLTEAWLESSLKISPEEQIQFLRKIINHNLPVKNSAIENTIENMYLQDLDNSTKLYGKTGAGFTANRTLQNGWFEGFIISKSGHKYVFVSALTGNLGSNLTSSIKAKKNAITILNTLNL

| SMILES | IC50 [1] | IC50 [2] | MIC of example compound in presence of fixed β-lactam: Fixed Mero, K. P. A-1797 KPC-2 VIM-4 [3] | IC50 [4] | MIC of example compound in presence of fixed β-lactam: Fixed Pip, S. aureus MSSA-7 PC-1 [5] | MIC of example compound in presence of fixed β-lactam: Fixed Mero, K. P. 156319 KPC-3 [6] | MIC of example compound in presence of fixed β-lactam: Fixed CAZ, E. coli ESBL4 CTX-M-15 [7] | IC50 [8] | MIC of example compound in presence of fixed β-lactam: Fixed Mero, P. aerug. Ps296 VIM-2 [9] | IC50 [10] | MIC of example compound in presence of fixed β-lactam: Fixed CAZ, E. cl. 144200 p99 AmpC [11] |
| --- | --- | --- | --- | --- | --- | --- | --- | --- | --- | --- | --- |
| O=C(CCN1CCNCC1)N[C@H]1Cc2cccc(C(=O)O)c2OB1O [Example 23, 2-Hydroxy-3-(3-piperazin-1-yl-propionylamino)-3,4-dihydro-2H-benzo[e][1,2]oxaborinine-8-carboxylic acid] | < 100 nM | < 100 nM | B (the MIC in the presence of between 8 and 32 μg/mL of a β-lactamase inhibitor) | < 100 nM | C (the MIC in the presence of <4 μg/mL of a β-lactamase inhibitor) | C (the MIC in the presence of <4 μg/mL of a β-lactamase inhibitor) | C (the MIC in the presence of <4 μg/mL of a β-lactamase inhibitor) | < 100 nM | B (the MIC in the presence of between 8 and 32 μg/mL of a β-lactamase inhibitor) | 1000 to 10000 nM | C (the MIC in the presence of <4 μg/mL of a β-lactamase inhibitor) |
| NCCN1CCC(CCC(=O)N[C@H]2Cc3cccc(C(=O)O)c3OB2O)CC1 [Example 31, 3-{3-[1-(2-Amino-ethyl)-piperidin-4-yl]-propionylamino}-2-hydroxy-3,4-dihydro-2H-benzo[e][1,2]oxaborinine-8-carboxylic acid] | < 100 nM | < 100 nM | B (the MIC in the presence of between 8 and 32 μg/mL of a β-lactamase inhibitor) | 100 to 1000 nM | C (the MIC in the presence of <4 μg/mL of a β-lactamase inhibitor) | C (the MIC in the presence of <4 μg/mL of a β-lactamase inhibitor) | C (the MIC in the presence of <4 μg/mL of a β-lactamase inhibitor) | < 100 nM | C (the MIC in the presence of <4 μg/mL of a β-lactamase inhibitor) | 1000 to 10000 nM | C (the MIC in the presence of <4 μg/mL of a β-lactamase inhibitor) |
| O=C(CN1CCNCC1=O)N[C@H]1Cc2cccc(C(=O)O)c2OB1O [Example 8, 2-Hydroxy-3-[2-(2-oxo-piperazin-1-yl)-acetylamino]-3,4-dihydro-2H-benzo[e][1,2]oxaborinine-8-carboxylic acid] | < 100 nM | 100 to 1000 nM | A (an MIC of the fixed β-lactam antibiotic in the presence of >32 μg/mL of a β-lactamase inhibitor) | 10000 to 100000 nM | C (the MIC in the presence of <4 μg/mL of a β-lactamase inhibitor) | C (the MIC in the presence of <4 μg/mL of a β-lactamase inhibitor) | C (the MIC in the presence of <4 μg/mL of a β-lactamase inhibitor) | < 100 nM | A (an MIC of the fixed β-lactam antibiotic in the presence of >32 μg/mL of a β-lactamase inhibitor) | 1000 to 10000 nM | C (the MIC in the presence of <4 μg/mL of a β-lactamase inhibitor) |
| O=C(O)c1cccc2c1OB(O)[C@@H](NC(=O)C1CN(c3ncccn3)C1)C2 [Example 48, (R)-2-hydroxy-3-(1-(pyrimidin-2-yl)azetidine-3-carboxamido)-3,4-dihydro-2H-benzo[e][1,2]oxaborinine-8-carboxylic acid] | < 100 nM | < 100 nM | B (the MIC in the presence of between 8 and 32 μg/mL of a β-lactamase inhibitor) | < 100 nM | C (the MIC in the presence of <4 μg/mL of a β-lactamase inhibitor) | C (the MIC in the presence of <4 μg/mL of a β-lactamase inhibitor) | C (the MIC in the presence of <4 μg/mL of a β-lactamase inhibitor) | < 100 nM | C (the MIC in the presence of <4 μg/mL of a β-lactamase inhibitor) | 1000 to 10000 nM | C (the MIC in the presence of <4 μg/mL of a β-lactamase inhibitor) |
